The values below are quoted from earlier work in patent US8960128B2, “Topical anesthetic composition” (Animal Ethics Pty Ltd, priority 2005, dated 2015).

For data set [1] the following is noted: typically up to about; depending on the method of administration.
The conditions of data set [2]: sheep, topically applied.

For `CCCCN1CCCCC1C(=O)Nc1c(C)cccc1C` (centres unmarked) [bupivacaine], in data set [1], the duration of anesthesia is 6 to 12 h.
Take `CCN(CC)CC(=O)Nc1c(C)cccc1C` [lignocaine]: the “total dose that should not be exceeded” value in data set [2] is listed as not above 50 mg/kg.
